What was measured:
[1] = biological target: T1, recombinant SARS-CoV-2 3CLpro (Severe acute respiratory syndrome coronavirus 2, UniProt P0DTD1); experiment: biochemical
[2] = biological target: T1, recombinant SARS-CoV-2 3CLpro; experiment: cell-based
HCoV-229E = experiment: microbe, parasite or virus in culture; assay type: cell-based; conditions: Human coronavirus 229E, Caco-2, read-out: HCoV-229E EC50
[3] = test system: SARS-CoV-2 B.1.617.2 Delta; experiment: microbe, parasite or virus in culture; assay type: cell-based; conditions: Severe acute respiratory syndrome coronavirus 2, Calu-3, read-out: Delta EC50
[4] = test system: SARS-CoV-2 Omicron XBB.1.5; experiment: microbe, parasite or virus in culture; assay type: cell-based; conditions: Severe acute respiratory syndrome coronavirus 2, Caco-2, read-out: XBB.1.5 EC50, nucleocapsid
SARS-CoV-2 Omicron BA.5 = experiment: microbe, parasite or virus in culture; assay type: cell-based; conditions: Severe acute respiratory syndrome coronavirus 2, Calu-3, read-out: BA.5 EC50 Calu-3, nucleocapsid, Calu-3, nucleocapsid staining
[5] = test system: SARS-CoV-2 Omicron BQ.1.1; experiment: microbe, parasite or virus in culture; assay type: cell-based; conditions: Severe acute respiratory syndrome coronavirus 2, Calu-3, read-out: BQ.1.1 EC50 Calu-3, nucleocapsid

SMILES | IC50 [1] [nM] | IC50 [2] [nM] | EC50 (HCoV-229E) [nM] | EC50 [3] [nM] | EC50 [4] [nM] | EC50 (SARS-CoV-2 Omicron BA.5) [nM] | EC50 [5] [nM]
COc1ccc(N(Cc2cc(Cl)cs2)C(=O)Cc2cncc3ccccc23)cc1 [C2, N-((4-chlorothiophen-2-yl)methyl)-2-(isoquinolin-4-yl)-N-(4-methoxyphenyl)acetamide] | 8500 ± 1700 | 600 ± 200 | 5600 ± 1400 | – | – | – | –
CC(C)(C)c1ccc(N(Cc2cc(Cl)cs2)C(=O)Cc2cncc3ccccc23)cc1 [C3, N-(4-(tert-butyl)phenyl)-N-((4-chlorothiophen-2-yl)methyl)-2-(isoquinolin-4-yl)acetamide] | 5000 ± 300 | 1200 ± 1000 | 9600 ± 1000 | – | – | – | –
CSc1ccc(N(Cc2cc(Cl)cs2)C(=O)Cc2cncc3ccccc23)cc1 [C4, N-((4-chlorothiophen-2-yl)methyl)-2-(isoquinolin-4-yl)-N-(4-(methylthio)phenyl)acetamide] | 2300 ± 200 | 600 ± 300 | 7900 ± 3800 | – | – | – | –
CN(C)c1ccc(N(Cc2cc(Cl)cs2)C(=O)Cc2cncc3ccccc23)cc1 [C5, N-((4-chlorothiophen-2-yl)methyl)-N-(4-(dimethylamino)phenyl)-2-(isoquinolin-4-yl)acetamide] | 900 ± 600 | – | 4200 ± 700 | 3200 | 100 | 100 | 300
CN(C)c1ccc(N(Cc2cc(Cl)cs2)C(=O)Cc2cncc3c(O)cccc23)cc1 [C5b, N-((4-chlorothiophen-2-yl)methyl)-N-(4-(dimethylamino)phenyl)-2-(8-hydroxyisoquinolin-4-yl)acetamide] | 4500 ± 1000 | – | – | – | – | – | –
C=CCC(c1cc(Cl)cs1)N(C(=O)Cc1cncc2ccccc12)c1ccc(N(C)C)cc1 (stereo not drawn) [C5c, N-(1-(4-chlorothiophen-2-yl)but-3-en-1-yl)-N-(4-(dimethylamino)phenyl)-2-(isoquinolin-4-yl)acetamide] | 1400 ± 800 | – | – | – | – | – | –
COc1ccc(Cl)cc1CN(C(=O)Cc1cncc2ccccc12)c1ccc(N(C)C)cc1 [C5d, N-(5-chloro-2-methoxybenzyl)-N-(4-(dimethylamino)phenyl)-2-(isoquinolin-4-yl)acetamide] | 2200 ± 700 | – | – | – | – | – | –
CN(C)c1ccc(N(Cc2cccc(Br)c2)C(=O)Cc2cncc3ccccc23)cc1 [C5e, N-(3-bromobenzyl)-N-(4-(dimethylamino)phenyl)-2-(isoquinolin-4-yl)acetamide] | 1400 ± 800 | – | – | – | – | – | –
CC(C)(C)[C@H](NC(=O)C(F)(F)F)C(=O)N1C[C@H]2[C@@H]([C@H]1C(=O)N[C@H](C#N)C[C@@H]1CCNC1=O)C2(C)C [C7, Nirmatrelvir, reference compound] | – | – | 2000 ± 1200 | 1300 | 300 | 400 | 400
